The values below come from patent US20260152503A1, “SPIROBICYCLIC COMPOUNDS” (ACERAND THERAPEUTICS (HONG KONG) LIMITED, priority 2022, published 2026).

The structures appear in SMILES notation. A value given as a limit tells only on which side of the number the result lay.

Holding throughout (format): cell-based
One experiment concerns the target T1, FGFR2 (Homo sapiens, UniProt P21802, K310R/N549K).
T1 construct: in FGFR aberrations of AN3CA (FGFR2/k310R, N549K); host or cells: AN3CA
Briefly: pERK potency assay (In Cell ELISA), AN3CA cells. The conditions noted are these: for IC50: pERK, AN3CA (FGFR2/k310R, N549K) cells, 3 hours; for FGFR1 IC50/FGFR2 IC50 / FGFR3 IC50/FGFR2 IC50: selectivity ratio, pERK potency; for FGFR1 IC50/FGFR2 IC50: FGFR2 relative to FGFR1; for FGFR3 IC50/FGFR2 IC50: FGFR2 relative to FGFR3. The text has this:
(§1) The purpose of this assay is to measure the ability of test compounds to inhibit FGFR mediated downstream signaling cascades, i.e., ERK phosphorylation in cells with FGFR aberrations. FGFR aberrations become constitutively active and thus induces cascades of cellular signaling events that result in increased phosphorylation of ERK at Threonine 202 and Tyrosine 204 (pERK). The procedure called In Cell ELISA described below measures the level of cellular pERK in response to FGFR specific inhibitor compounds in FGFR aberrations of AN3CA (FGFR2/k310R, N549K), DMS114 (FGFR1 amplification), RT112 (FGFR3 overexpression/FGFR3-TACC3 fusion) and Hep3B (FGF19 amplification) cells. AN3CA, DMS114 and Hep3B cells are from ATCC. RT112 cells are from Sigma. DMS114 cells are grown and maintained using RPMI-1640 medium supplemented with 10% heat-inactivated fetal bovine serum. AN3CA, Hep3B and RT112 cells are grown and maintained using DMEM supplemented with 10% heat-inactivated fetal bovine serum. On the day before test compound addition, cells are plated in poly-D-lysine coated 96-well cell culture plates (Corning® BioCoat® Cat #356640) at 40000 cells/well/100 μL and grown overnight in a 37° C., 5% CO2 incubator. Test compounds are prepared with 4-fold serial dilutions in DMSO, with a top concentration of 10 μM. On the day of the assay, 50 μL of test compound diluted in media was added to each well of cell culture plate with the final concentration of compounds spanning from 0.000038 μM to 10 μM. After compound addition, cells are incubated for 3 hours at 37° C., 5% CO2 and then the culture medium is removed. Cells are fixed with 4% formaldehyde in phosphate-buffered saline (PBS) and incubated at RT for 20 min. The plate is then washed three times with PBST (PBS with 0.05% tween-20), followed by the incubation with 100 μL of pre-cooled methanol at −20° C. for 20 min. After incubation, methanol is removed, and the plate is washed once with PBST. Cells are permeabilized with 100 µL/well of 0.1% Triton X-100 in PBS at RT for 20 min and then quenched with quenching buffer (PBST containing 1% H2O2 and 0.1% sodium azide) for 20 min at RT with gentle shaking. After washing once with PBST, blocking buffer (250 ul/well, Pierce™ Protein-Free-PBS Blocking Buffer, Cat #37572) was then added to the cells for 1-h incubation at RT, followed by anti-pERK antibody (cell signaling, 1:1000 dilution in 5% BSA in PBST) incubation overnight at 4° C. and secondary antibody-HRP (Jackson immunoresearch, 1:3000 dilution in 5% BSA in PBST) incubation at RT for 1 h. PBST wash is carried out after each step three times. Before the addition of the substrate (Advansta ELISABright), the plate is washed with PBS twice to remove detergent residues. Cellular pERK level is determined using the microplate reader (Biotek Synergy H1) to detect the chemiluminescence signal. IC50 is determined by fitting a 4-parameter sigmoidal concentration-response model. FGFR wild type cells (H1975, PC-9 and AGS) are used to serve as negative control (FGFR selectivity) with the same assay procedures described above.

A further experiment addresses T2, FGFR1 (Homo sapiens, UniProt P11362).
T2 construct: DMS114 (FGFR1 amplification); host or cells: DMS114
Briefly: pERK potency assay (In Cell ELISA), DMS114 cells. The following applies: DMS114 (FGFR1 amplification) cells, 3 hours.
Source text: as §1
Background: In an ELISA, binding on a coated surface is turned into a signal by an enzyme label.

Another experiment deals with T3, FGFR3 (Homo sapiens, UniProt P22607).
T3 construct: RT112 (FGFR3 overexpression/FGFR3-TACC3 fusion); host or cells: RT112; the other entry of the earlier key: TACC3 (Q9Y6A5, Transforming acidic coiled-coil-containing protein 3)
In words: pERK potency assay (In Cell ELISA), RT112 cells. The following applies: RT112 (FGFR3 overexpression/FGFR3-TACC3 fusion) cells, 3 hours.
Source text: as §1

T1 sequence (P21802 22-821 K310R/N549K): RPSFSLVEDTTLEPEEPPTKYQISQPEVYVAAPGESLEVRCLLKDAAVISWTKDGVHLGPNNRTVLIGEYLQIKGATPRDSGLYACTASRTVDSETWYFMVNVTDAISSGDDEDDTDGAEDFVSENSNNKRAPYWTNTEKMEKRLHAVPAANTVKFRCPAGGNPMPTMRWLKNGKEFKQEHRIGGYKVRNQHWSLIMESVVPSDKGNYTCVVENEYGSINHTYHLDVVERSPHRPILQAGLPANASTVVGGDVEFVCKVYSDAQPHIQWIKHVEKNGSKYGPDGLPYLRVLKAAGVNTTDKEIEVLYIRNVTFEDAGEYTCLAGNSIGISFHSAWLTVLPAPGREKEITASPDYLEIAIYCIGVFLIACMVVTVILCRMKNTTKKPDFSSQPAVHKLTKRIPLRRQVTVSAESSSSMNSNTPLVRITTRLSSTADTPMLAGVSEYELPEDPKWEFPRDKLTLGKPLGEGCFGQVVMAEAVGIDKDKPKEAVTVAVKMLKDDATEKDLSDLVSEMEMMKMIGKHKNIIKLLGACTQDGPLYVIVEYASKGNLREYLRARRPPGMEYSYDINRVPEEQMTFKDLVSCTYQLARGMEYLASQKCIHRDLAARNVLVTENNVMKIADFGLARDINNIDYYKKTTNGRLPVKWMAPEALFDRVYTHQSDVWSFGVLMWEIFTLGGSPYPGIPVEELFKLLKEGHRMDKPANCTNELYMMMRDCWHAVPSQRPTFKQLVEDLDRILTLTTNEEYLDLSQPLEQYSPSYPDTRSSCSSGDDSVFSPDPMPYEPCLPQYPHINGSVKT
T2 sequence (P11362 22-822): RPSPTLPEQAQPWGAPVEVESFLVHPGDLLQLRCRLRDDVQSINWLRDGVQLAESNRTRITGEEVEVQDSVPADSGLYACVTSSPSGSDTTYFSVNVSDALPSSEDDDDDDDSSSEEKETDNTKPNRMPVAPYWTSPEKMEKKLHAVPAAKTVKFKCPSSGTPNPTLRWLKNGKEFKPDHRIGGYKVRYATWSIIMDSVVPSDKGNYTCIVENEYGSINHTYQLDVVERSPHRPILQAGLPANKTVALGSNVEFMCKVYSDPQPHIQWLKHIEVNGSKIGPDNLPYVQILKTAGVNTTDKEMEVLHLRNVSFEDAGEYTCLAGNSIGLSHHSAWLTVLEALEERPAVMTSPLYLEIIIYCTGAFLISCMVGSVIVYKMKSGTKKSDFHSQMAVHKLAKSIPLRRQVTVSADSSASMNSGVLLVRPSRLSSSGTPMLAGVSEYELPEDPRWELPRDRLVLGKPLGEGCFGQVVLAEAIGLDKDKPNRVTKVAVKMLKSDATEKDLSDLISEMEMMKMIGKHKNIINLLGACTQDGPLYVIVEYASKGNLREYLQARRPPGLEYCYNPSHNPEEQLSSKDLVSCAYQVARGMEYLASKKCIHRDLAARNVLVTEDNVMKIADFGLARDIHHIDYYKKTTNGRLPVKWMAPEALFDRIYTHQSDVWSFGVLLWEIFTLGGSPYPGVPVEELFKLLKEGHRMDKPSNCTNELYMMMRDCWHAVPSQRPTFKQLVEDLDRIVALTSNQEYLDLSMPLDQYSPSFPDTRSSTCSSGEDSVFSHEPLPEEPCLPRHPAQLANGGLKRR

One may read the IC50 as the midpoint of a concentration-inhibition curve. In the case of `C=CC(=O)N1CCC2(CC=C(c3c(-c4ccc(OC)nc4)c4c(N)ncnc4n3C)CC2)CC1` [Example 30, 1-(9-(4-amino-5-(6-methoxypyridin-3-yl)-7-methyl-7H-pyrrolo[2,3-d]pyrimidin-6-yl)-3-azaspiro[5.5]undec-8-en-3-yl)prop-2-en-1-one], the results for the IC50 on FGFR2, on FGFR1 and on FGFR3 were no more than 1 nM, greater than 100 nM and greater than 100 nM, respectively. Besides, the “FGFR1 IC50/FGFR2 IC50” value at FGFR2 was “G (a selectivity ratio greater than 150 but less than or equal to 500)”. For the same compound, the “FGFR3 IC50/FGFR2 IC50” value at FGFR2 was “H (a selectivity ratio greater than 500 but less than or equal to 1000)”.
As for `C=CC(=O)N1CCC2(CC=C(c3c(-c4cncnc4)c4c(N)ncnc4n3C)CC2)CC1` [Example 32, 1-(9-(4-amino-7-methyl-5-(pyrimidin-5-yl)-7H-pyrrolo[2,3-d]pyrimidin-6-yl)-3-azaspiro[5.5]undec-8-en-3-yl)prop-2-en-1-one], the IC50 on FGFR2 is 30 to 100 nM; on FGFR1, greater than 100 nM; on FGFR3 it was greater than 100 nM. Besides, on FGFR2, the “FGFR1 IC50/FGFR2 IC50” value was “F (a selectivity ratio greater than 50 but less than or equal to 150)”. Besides, the “FGFR3 IC50/FGFR2 IC50” value at FGFR2 is on record as “G (a selectivity ratio greater than 150 but less than or equal to 500)”.
Regarding `C=CC(=O)N1CC2(CC(c3c(-c4ccc(Oc5ncccn5)cc4)c4c(N)ncnc4n3C)C2)C1` [Example 3, 1-(6-(4-amino-7-methyl-5-(4-(pyrimidin-2-yloxy)phenyl)-7H-pyrrolo[2,3-d]pyrimidin-6-yl)-2-azaspiro[3.3]heptan-2-yl)prop-2-en-1-one], the IC50 at FGFR2, on FGFR1 and at FGFR3 was greater than 100 nM each time.
Take `C=CC(=O)N1CCC2(CC=C(c3c(-c4ncccn4)c4c(N)ncnc4n3C)CC2)CC1(C)C` (stereo not shown) [Example 34, 1-(9-(4-amino-7-methyl-5-(pyrimidin-2-yl)-7H-pyrrolo[2,3-d]pyrimidin-6-yl)-2,2-dimethyl-3-azaspiro[5.5]undec-8-en-3-yl)prop-2-en-1-one]: at FGFR2, the IC50 was in the range of 1 to 10 nM, the “FGFR1 IC50/FGFR2 IC50” value is listed as “H (a selectivity ratio greater than 500 but less than or equal to 1000)” and the “FGFR3 IC50/FGFR2 IC50” value is recorded as “J (a selectivity ratio greater than 2000)”. The IC50 on FGFR1 is greater than 100 nM. Moreover, the IC50 on FGFR3 is greater than 100 nM.
Regarding `C=CC(=O)N1CCC2(CC=C(c3c(-c4ccc(OC5CC(C)C5)nc4)c4c(N)ncnc4n3C)CC2)CC1` (stereo not shown) [Example 25, 1-(9-(4-amino-7-methyl-5-(6-(3-methylcyclobutoxy)pyridin-3-yl)-7H-pyrrolo[2,3-d]pyrimidin-6-yl)-3-azaspiro[5.5]undec-8-en-3-yl)prop-2-en-1-one], the IC50 is 1 to 10 nM on FGFR2, 30 to 100 nM on FGFR1 and greater than 100 nM on FGFR3. Moreover, on FGFR2, the “FGFR3 IC50/FGFR2 IC50” value was “F (a selectivity ratio greater than 50 but less than or equal to 150)”.
As to `C=CC(=O)N1CCC2(CC=C(c3c(-c4ncc5c(n4)CCO5)c4c(N)ncnc4n3C)CC2)CC1` [Example 48, 1-(9-(4-amino-5-(6,7-dihydrofuro[3,2-d]pyrimidin-2-yl)-7-methyl-7H-pyrrolo[2,3-d]pyrimidin-6-yl)-3-azaspiro[5.5]undec-8-en-3-yl)prop-2-en-1-one], the IC50 was 1 to 10 nM at FGFR2, greater than 100 nM at FGFR1 and greater than 100 nM at FGFR3. In addition, the “FGFR1 IC50/FGFR2 IC50” value on FGFR2 is given as “H (a selectivity ratio greater than 500 but less than or equal to 1000)”. For the same compound, the “FGFR3 IC50/FGFR2 IC50” value on FGFR2 is listed as “J (a selectivity ratio greater than 2000)”.
For `C=CC(=O)NC1CC2(CC=C(c3c(-c4ccc(OC)cc4)c4c(N)ncnc4n3C)CC2)C1` (stereo not shown) [Example 7, N-(7-(4-amino-5-(4-methoxyphenyl)-7-methyl-7H-pyrrolo[2,3-d]pyrimidin-6-yl)spiro[3.5]non-6-en-2-yl)acrylamide], the IC50 on FGFR2 is 10 to 30 nM; at FGFR1, greater than 100 nM; on FGFR3, greater than 100 nM.
On to `C=CC(=O)N1CC2(CC=C(c3c(-c4ccc(Oc5ncccn5)cc4)c4c(N)ncnc4n3C)CC2)C1` [Example 1, 1-(7-(4-amino-7-methyl-5-(4-(pyrimidin-2-yloxy)phenyl)-7H-pyrrolo[2,3-d]pyrimidin-6-yl)-2-azaspiro[3.5]non-6-en-2-yl)prop-2-en-1-one], for which the results for the concentration for half-maximal inhibition (IC50) on FGFR2, at FGFR1 and at FGFR3 were 1 to 10 nM, greater than 100 nM and greater than 100 nM, respectively. The “FGFR1 IC50/FGFR2 IC50” value at FGFR2 is “I (a selectivity ratio greater than 1000 but less than or equal to 2000)”. The “FGFR3 IC50/FGFR2 IC50” value at FGFR2 is given as “F (a selectivity ratio greater than 50 but less than or equal to 150)”.
`C=CC(=O)N1CCC2(CC=C(c3c(-c4ncccn4)c4c(N)ncnc4n3CCO)CC2)CC1` [Example 54, 1-(9-(4-amino-7-(2-hydroxyethyl)-5-(pyrimidin-2-yl)-7H-pyrrolo[2,3-d]pyrimidin-6-yl)-3-azaspiro[5.5]undec-8-en-3-yl)prop-2-en-1-one]: on FGFR2, the IC50 lay in the range of 1 to 10 nM, the “FGFR1 IC50/FGFR2 IC50” value was “F (a selectivity ratio greater than 50 but less than or equal to 150)” and the “FGFR3 IC50/FGFR2 IC50” value is given as “G (a selectivity ratio greater than 150 but less than or equal to 500)”. Further, the IC50 on FGFR1 was greater than 100 nM. Moreover, the IC50 on FGFR3 was greater than 100 nM.
For the compound `C=CC(=O)N1CCC2(CC=C(c3c(-c4nccc(C)n4)c4c(N)ncnc4n3C)CC2)CC1` [Example 35, 1-(9-(4-amino-7-methyl-5-(4-methylpyrimidin-2-yl)-7H-pyrrolo[2,3-d]pyrimidin-6-yl)-3-azaspiro[5.5]undec-8-en-3-yl)prop-2-en-1-one], on FGFR2, the IC50 was 10 to 30 nM, the “FGFR1 IC50/FGFR2 IC50” value is listed as “F (a selectivity ratio greater than 50 but less than or equal to 150)” and the “FGFR3 IC50/FGFR2 IC50” value is “G (a selectivity ratio greater than 150 but less than or equal to 500)”. Besides, the IC50 on FGFR1 was greater than 100 nM. Besides, the IC50 on FGFR3 is greater than 100 nM.
Take `C=CC(=O)N1CCC2(CC=C(c3c(-c4ccc(OC)nc4)c4c(N)ncnc4n3C)CC2)CC1(C)C` (stereo not shown) [Example 40, 1-(9-(4-amino-5-(6-methoxypyridin-3-yl)-7-methyl-7H-pyrrolo[2,3-d]pyrimidin-6-yl)-2,2-dimethyl-3-azaspiro[5.5]undec-8-en-3-yl)prop-2-en-1-one]: at FGFR2, the IC50 is 1 to 10 nM, the “FGFR1 IC50/FGFR2 IC50” value is given as “G (a selectivity ratio greater than 150 but less than or equal to 500)” and the “FGFR3 IC50/FGFR2 IC50” value is “I (a selectivity ratio greater than 1000 but less than or equal to 2000)”. In addition, the IC50 on FGFR1 is greater than 100 nM. The IC50 on FGFR3 was greater than 100 nM.
`C=CC(=O)NC1CC2(CC=C(c3c(-c4ccc(Oc5ncccn5)cc4)c4c(N)ncnc4n3C)CC2)C1` (stereo not shown) [Example 9, N-(7-(4-amino-7-methyl-5-(4-(pyrimidin-2-yloxy)phenyl)-7H-pyrrolo[2,3-d]pyrimidin-6-yl)spiro[3.5]non-6-en-2-yl)acrylamide]: the IC50 on FGFR2 is 10 to 30 nM; on FGFR1, greater than 100 nM; on FGFR3, greater than 100 nM. On FGFR2, the “FGFR1 IC50/FGFR2 IC50” value is recorded as “F (a selectivity ratio greater than 50 but less than or equal to 150)”. For the same compound, at FGFR2 (given as numeric bound), the “FGFR3 IC50/FGFR2 IC50” value was less than 50.
